In ChEMBL document CHEMBL1157885, “The discovery and structure-activity relationships of 2-(piperidin-3-yl)-1H-benzimidazoles as selective, CNS penetrating H1-antihistamines for insomnia” (Bioorg Med Chem Lett, 2010):

Legend:
Cytochrome P450 3A4 = Cytochrome P450 3A4 (Homo sapiens, UniProt P08684); test: (§1) Inhibition of CYP3A4; assay type: ADME
[1] = molecular target: T1, Voltage-gated inwardly rectifying potassium channel KCNH2 (Homo sapiens, UniProt Q12809); test: Displacement of [3H]dofetolide from human ERG channel expressed in HEK293 cells by liquid scintillation counting; assay type: cell-based
Histamine H1 receptor = Histamine H1 receptor (Homo sapiens, UniProt P35367); test: Displacement of [3H]pyrilamine from human histamine H1 receptor expressed in CHO Flp-In cells by liquid scintillation counting; assay type: cell-based
[2] = molecular target: T2, Muscarinic acetylcholine receptor M1 (Homo sapiens, UniProt P11229); test: Displacement of [3H]N-methyl Scopolamine from human muscarinic M1 receptor expressed in CHO Flp-In cells by liquid scintillation counting; assay type: cell-based
T2 sequence (P11229 whole entry): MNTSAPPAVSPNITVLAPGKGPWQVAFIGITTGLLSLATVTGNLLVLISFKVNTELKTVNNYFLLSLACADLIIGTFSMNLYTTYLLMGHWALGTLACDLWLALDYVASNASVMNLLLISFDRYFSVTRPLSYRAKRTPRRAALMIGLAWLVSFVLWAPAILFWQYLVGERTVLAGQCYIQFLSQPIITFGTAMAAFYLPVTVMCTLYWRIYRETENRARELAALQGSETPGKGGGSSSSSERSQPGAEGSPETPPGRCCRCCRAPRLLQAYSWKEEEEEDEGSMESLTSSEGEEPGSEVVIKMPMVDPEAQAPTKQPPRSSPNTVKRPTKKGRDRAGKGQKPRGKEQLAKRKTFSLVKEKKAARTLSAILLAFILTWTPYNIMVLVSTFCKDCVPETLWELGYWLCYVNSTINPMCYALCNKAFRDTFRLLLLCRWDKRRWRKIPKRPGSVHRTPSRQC

Cytochrome P450 2D6 = Cytochrome P450 2D6 (Homo sapiens, UniProt P10635); test: Inhibition of CYP2D6; assay type: ADME
[3] = molecular target: T1, Voltage-gated inwardly rectifying potassium channel KCNH2; test: Inhibition of human ERG channel by electrophysiology assay
Liver microsomes = test: Metabolic stability in human liver microsomes; assay type: ADME, Microsome
CYP3A4 = CYP3A4 (Homo sapiens, UniProt P08684); test: as §1; assay type: ADME
hERG (KCNH2) = hERG (KCNH2) (Homo sapiens, UniProt Q12809); test: Inhibition of human ERG channel at 10 uM by patch clamp assay
[4] = molecular target: T1, Voltage-gated inwardly rectifying potassium channel KCNH2; test: Inhibition of human ERG channel by patch clamp assay
[5] = Solubility in 0.15 M KCl buffer at pH 7.4 by potentiometric method; assay type: physicochemical

Cytochrome P450 3A4, sequence (P08684 whole entry): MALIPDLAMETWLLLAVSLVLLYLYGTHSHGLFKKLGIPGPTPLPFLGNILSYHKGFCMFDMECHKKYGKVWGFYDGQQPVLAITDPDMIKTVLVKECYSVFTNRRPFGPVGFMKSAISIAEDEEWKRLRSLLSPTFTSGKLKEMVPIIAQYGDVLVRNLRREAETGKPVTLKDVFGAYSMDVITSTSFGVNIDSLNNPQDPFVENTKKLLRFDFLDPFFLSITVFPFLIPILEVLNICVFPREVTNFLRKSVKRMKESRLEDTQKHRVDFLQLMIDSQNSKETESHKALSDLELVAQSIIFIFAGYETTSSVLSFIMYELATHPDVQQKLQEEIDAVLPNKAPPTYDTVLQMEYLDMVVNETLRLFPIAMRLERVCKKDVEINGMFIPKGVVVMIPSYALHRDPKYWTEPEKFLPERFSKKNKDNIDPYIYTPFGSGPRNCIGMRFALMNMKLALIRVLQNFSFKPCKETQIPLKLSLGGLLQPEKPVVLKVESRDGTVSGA
T1 sequence (Q12809 whole entry): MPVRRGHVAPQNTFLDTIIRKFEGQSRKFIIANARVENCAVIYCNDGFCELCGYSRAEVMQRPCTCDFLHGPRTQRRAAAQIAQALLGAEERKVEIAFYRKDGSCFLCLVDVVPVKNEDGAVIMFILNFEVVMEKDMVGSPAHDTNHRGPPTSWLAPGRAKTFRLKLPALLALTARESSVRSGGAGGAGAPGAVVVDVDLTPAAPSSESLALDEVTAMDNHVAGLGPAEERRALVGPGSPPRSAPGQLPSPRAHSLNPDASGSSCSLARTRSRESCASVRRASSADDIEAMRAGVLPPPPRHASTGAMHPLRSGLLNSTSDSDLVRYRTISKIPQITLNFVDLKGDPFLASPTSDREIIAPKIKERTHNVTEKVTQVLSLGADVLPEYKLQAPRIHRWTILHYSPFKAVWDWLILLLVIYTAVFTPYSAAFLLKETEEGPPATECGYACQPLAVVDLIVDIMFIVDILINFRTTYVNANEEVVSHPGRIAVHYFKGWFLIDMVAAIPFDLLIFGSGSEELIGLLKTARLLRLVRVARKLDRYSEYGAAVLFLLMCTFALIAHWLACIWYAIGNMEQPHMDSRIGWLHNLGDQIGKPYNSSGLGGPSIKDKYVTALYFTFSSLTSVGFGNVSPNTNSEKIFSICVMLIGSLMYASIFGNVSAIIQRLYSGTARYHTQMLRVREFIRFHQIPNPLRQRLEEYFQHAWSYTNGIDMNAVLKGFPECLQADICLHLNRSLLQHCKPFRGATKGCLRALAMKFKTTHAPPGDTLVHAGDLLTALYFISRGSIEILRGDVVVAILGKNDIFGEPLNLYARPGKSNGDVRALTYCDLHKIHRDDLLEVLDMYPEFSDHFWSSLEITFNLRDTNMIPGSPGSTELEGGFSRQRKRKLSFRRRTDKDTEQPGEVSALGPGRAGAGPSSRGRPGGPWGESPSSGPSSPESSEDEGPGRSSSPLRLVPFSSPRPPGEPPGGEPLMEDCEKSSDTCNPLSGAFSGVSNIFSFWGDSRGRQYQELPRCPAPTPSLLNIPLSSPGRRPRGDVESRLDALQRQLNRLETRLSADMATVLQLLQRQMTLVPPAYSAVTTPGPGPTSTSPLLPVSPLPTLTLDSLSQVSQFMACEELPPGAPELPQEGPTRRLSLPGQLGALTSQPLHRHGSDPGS
Histamine H1 receptor, sequence (P35367 whole entry): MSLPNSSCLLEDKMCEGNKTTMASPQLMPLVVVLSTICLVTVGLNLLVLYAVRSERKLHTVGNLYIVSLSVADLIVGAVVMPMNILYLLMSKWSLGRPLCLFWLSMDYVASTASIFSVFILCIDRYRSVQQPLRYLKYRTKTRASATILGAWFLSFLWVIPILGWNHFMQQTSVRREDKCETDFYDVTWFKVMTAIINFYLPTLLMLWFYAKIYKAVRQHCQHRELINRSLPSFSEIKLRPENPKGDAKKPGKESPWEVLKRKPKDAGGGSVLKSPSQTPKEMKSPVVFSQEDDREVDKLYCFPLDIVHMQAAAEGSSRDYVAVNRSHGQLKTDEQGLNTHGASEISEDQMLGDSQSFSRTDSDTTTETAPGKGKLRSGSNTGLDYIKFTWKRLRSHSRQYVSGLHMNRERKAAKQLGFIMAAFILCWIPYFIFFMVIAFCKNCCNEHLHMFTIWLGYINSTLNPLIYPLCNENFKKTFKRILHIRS
Cytochrome P450 2D6, sequence (P10635 whole entry): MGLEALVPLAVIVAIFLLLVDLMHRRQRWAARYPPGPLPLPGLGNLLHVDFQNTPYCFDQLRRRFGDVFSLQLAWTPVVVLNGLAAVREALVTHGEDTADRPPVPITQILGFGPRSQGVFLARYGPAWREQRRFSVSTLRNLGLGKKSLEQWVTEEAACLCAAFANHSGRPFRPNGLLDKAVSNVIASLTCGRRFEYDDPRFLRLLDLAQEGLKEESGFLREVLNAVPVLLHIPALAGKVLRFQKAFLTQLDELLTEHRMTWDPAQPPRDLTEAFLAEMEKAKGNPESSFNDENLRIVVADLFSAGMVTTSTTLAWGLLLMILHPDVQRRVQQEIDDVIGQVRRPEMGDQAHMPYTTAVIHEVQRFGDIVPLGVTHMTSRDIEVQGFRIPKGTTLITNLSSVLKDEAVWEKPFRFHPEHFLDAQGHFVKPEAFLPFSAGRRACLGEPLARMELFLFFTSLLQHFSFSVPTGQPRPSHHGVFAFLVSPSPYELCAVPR
CYP3A4, sequence (P08684 whole entry): as the sequence (P08684 whole entry) above
hERG (KCNH2), sequence (Q12809 whole entry): as the sequence (Q12809 whole entry) above

Structure (SMILES) | IC50 (Cytochrome P450 3A4) [µM] | Ki [1] [nM] | also measured
Cc1csc(Cn2c(C3CCCN(C4CCCCC4)C3)nc3ccccc32)n1 (configuration not stated) | > 5 | 1180 | –
CN1CCCC(c2nc3ccccc3n2CC2CCCO2)C1 (configuration not stated) | > 5 | 638 | –
CCOCCn1c([C@@H]2CCCN(C)C2)nc2ccccc21 | – | – | inhibition (INH) (Cytochrome P450 3A4): Not Active
CN(CC1CCOCC1)C1CCN(c2nc3ccccc3n2Cc2ccc(F)cc2)CC1 | – | – | Ki [2]: 4800 nM; IC50 (CYP3A4): > 5 µM
CN1CCC[C@@H](c2nc3ccccc3n2Cc2ccccn2)C1 | – | 10300 | inhibition (INH) (Cytochrome P450 3A4): Not Active; inhibition at 10 µM (hERG (KCNH2)): 39%
CN1CCC[C@H](c2nc3ccccc3n2Cc2ccccn2)C1 | – | > 10000 | inhibition (INH) (Cytochrome P450 3A4): Not Active
CCOCCn1c([C@@H]2CCCN(C3CCOCC3)C2)nc2ccccc21 | – | > 3000 | inhibition (INH) (Cytochrome P450 3A4): Not Active; IC50 [4]: 2100 nM
CCOCCn1c(N2CC[C@H](N(C)C)C2)nc2ccccc21 | > 5 | – | Ki (Histamine H1 receptor): 4.8 nM; Ki [2]: 1500 nM; IC50 (Cytochrome P450 2D6): > 10 µM; IC50 [3]: 21 nM; Stability (Liver microsomes): Stable
Cc1csc(Cn2c(C3CCCN(C4CCOCC4)C3)nc3ccccc32)n1 (configuration not stated) | > 5 | > 3000 | –
Cc1cnn(C2CCN(c3nc4ccccc4n3Cc3ccc(F)cc3)CC2)c1 | – | – | solubility [5]: < 10 µg/mL
CCOCCn1c([C@H]2CCCN(C)C2)nc2ccccc21 | – | – | inhibition (INH) (Cytochrome P450 3A4): Not Active
CCOCCn1c(C2CCCN(C3CCCCC3)C2)nc2ccccc21 (configuration not stated) | > 5 | > 10000 | –
COc1ccc(Cn2c(C3CCCN(C4CCCCC4)C3)nc3ccccc32)cc1 (configuration not stated) | – | 1840 | –
CCOCCn1c(C2CCCN(C3CCOCC3)C2)nc2ccccc21 (configuration not stated) | > 5 | > 3000 | –

More lines, main results first:

IC50 (Cytochrome P450 3A4) [µM] | Structure (SMILES) | Ki [1] [nM] | also measured
> 5 | COc1ccc(Cn2c(C3CCCN(C4CCOCC4)C3)nc3ccccc32)cc1 (configuration not stated) | > 10000 | –
> 5 | COc1ccc(Cn2c(C3CCCN(C)C3)nc3ccccc32)cc1 (configuration not stated) | > 5000 | –
> 5 | COc1ccc(Cn2c(N3CC[C@@H](N(C)C)C3)nc3ccccc32)cc1 | – | Ki (Histamine H1 receptor): 8.4 nM; Ki [2]: 2500 nM; IC50 (Cytochrome P450 2D6): > 10 µM; IC50 [3]: 233 nM; Stability (Liver microsomes): Stable
> 5 | CN1CCCC(c2nc3ccccc3n2Cc2ccccn2)C1 (configuration not stated) | > 10000 | –
> 5 | CCOCCn1c(C2CCCN(C)C2)nc2ccccc21 (configuration not stated) | – | –
> 5 | Cc1csc(Cn2c(C3CCCN(C)C3)nc3ccccc32)n1 (configuration not stated) | > 10000 | –
> 5 | CN1CCCC(c2nc3ccccc3n2CCOc2ccccc2)C1 (configuration not stated) | – | –
> 5 | COc1ccc(Cn2c(C3CCCN(C(C)C)C3)nc3ccccc32)cc1 (configuration not stated) | 2650 | –
> 5 | CC(C)N1CCCC(c2nc3ccccc3n2Cc2ccc(F)cc2)C1 (configuration not stated) | 1370 | –
> 5 | Fc1ccc(Cn2c(C3CCCN(C4CCCCC4)C3)nc3ccccc32)cc1 (configuration not stated) | 926 | –
